Publication PMC11358582, “Discovery of a potential bladder cancer inhibitor CHNQD-01281 by regulating EGFR and promoting infiltration of cytotoxic T cells” (Marine Life Science & Technology, 2024)
In brackets after ≈: the same amount, converted by molar mass.

Key:
EGFR = assay: Western blot of EGFR expression in J82 cells; type: cell-based, human; conditions: J82, 0.16 µmol/L, versus control
Protocol: T24 and J82 cell lines were lysed in protein lysis buffer, which included phosphatase inhibitors and a cocktail of protease inhibitors. A BCA kit (SparkJade, China) was used to determine the total protein concentration. After protein denaturation, SDS-PAGE electrophoresis was performed and the protein transferred from the gel to a PVDF membrane (Millipore, USA). Then primary antibodies against cleaved caspases-3, cleaved PARP, AKT, phosphorylated AKT, ERK1/2, phosphorylated ERK1/2, EGFR, mTOR, phosphorylated mTOR and Tubulin (CST, USA) were diluted at 1:1000 at 4 °C overnight. The membranes were then washed and incubated with secondary antibodies dissolved in 5% nonfat milk. A chemiluminescence imaging system was used to detect the signals (Tanon, China).
EGFR is overexpressed in malignant urothelial cells, which is associated with the deterioration, invasiveness and metastasis of tumors. It is a potential therapeutic target for bladder carcinoma. Therefore, we examined the expression of EGFR and its downstream proteins after treating bladder cancer cells with CHNQD-01281 (Supplementary Fig. S11). […] Taken together, CHNQD-01281 inhibited the proliferation of bladder cancer cells and induced apoptosis through EGFR/PI3K/AKT and EGFR/ERK pathways to exert antitumor effects.

MB49 tumor = assay: MB49 homologous (syngeneic) tumor model; type: in vivo, C57BL/6 mice
Protocol: Specific pathogen free (SPF)-grade C57BL/6 mice and BALB/c-nu mice were purchased from Jinan Pengyue Experimental Animal Center (license No. SCXK 20190003). The protocol was approved by the Research Review Committee of the Ocean University of China. All mice were housed in 12-h light and 12-h dark conditions in which the humidity was 50% ± 10% and the temperature was 22 ± 2 °C. All mice had free access to food and water. The human bladder cancer cell line T24 was injected subcutaneously into BALB/c-nu mice to construct a xenograft tumor model. The cell suspension of mouse bladder cancer cell line MB49 was injected into C57BL/6 mice subcutaneously to construct a syngeneic tumor model.
Fixed tissues were embedded in paraffin and then sectioned. The specimens were incubated with antibodies against Ki67, CD3, CD4, CD8 (Servicebio, China) and EGFR (ABclonal, China) at 4 °C overnight. The next day, the slides were washed with 1 × PBST three times for 5 min each and stained with the secondary antibodies and Hoechst 33342 dye (Beyotime, China) for 60 min for IF. For IHC staining, the sections were developed with a rabbit/mouse HRP kits (DAB) (Beyotime, China) according to the manufacturer’s instructions.
In addition, apoptosis, necrosis, and increased eosinophil cytoplasm were observed and there was a large number of lymphocyte infiltration in the treatment group.

[1] = Solubility in selected aqueous solutions; type: physicochemical
From the text: The problem of poor water solubility is one of the factors that seriously restricts the preclinical application of BFA. Therefore, from the perspective of pharmaceutics, it is of great application value to explore safe and effective methods to improve its solubility. Based on the previous screening of commonly used solvents, solubilizers and co-solvents for BFA and its derivatives, we explored the solubility of CHNQD-01281, which was compared and assessed in selected aqueous solutions (Table 1). Saline or PBS were commonly used solvents, but the solubility of BFA or CHNQD-01281 was less than 1 mg/mL when used alone. No significant improvement in solubility was observed after the addition of DMSO or PEG400. […] More importantly, the solution system of CHNQD-01281 with saline/DMSO/solutol HS-15 (85/5/10) can fully meet the needs of follow-up experiments in vivo, such as pharmacodynamics, pharmacokinetics and safety evaluation.

J82 cell line = assay: Wound healing assay (migration); type: cell-based, human; conditions: J82, 0.16 µmol/L, 24 h
Protocol: (§1) Fig. 3 Effects of CHNQD-01281 on colony formation and migration of T24 and J82 cell lines. A T24 and J82 cell lines were cultured for 12 days with varying concentrations of CHNQD-01281 (0−0.16 μmol/L) and colonies were fixed and dyed with 0.1% crystal violet. B The relative colony numbers are shown. C Scratches of T24 and J82 cell colonies were generated with pipette tips (200 μL). After 24 h of incubation with 0−0.16 μmol/L CHNQD-01281, representative images were captured. D Histograms display the healed rate. Data are represented as the mean ± SD of three independent experiments. **P < 0.01, ***P < 0.001 and ****P < 0.0001 versus the 0 μmol/L group
(§2) Metastasis and invasiveness are important indications for progression of bladder cancer. […] At the concentration of 0.16 µmol/L, the healed rate of T24 and J82 was 21% and 29%, respectively.

T24 cell line = assay: Wound healing assay (migration); type: cell-based, human; conditions: T24, 0.16 µmol/L, 24 h
Protocol: as §1, §2

[2] = test system: human hepatocyte cell line L-02; assay: MTT cell proliferation assay; type: cell-based; conditions: L-02, MTT
Protocol: Human tumor cell lines Eca-109, BEL-7402, BxPC-3, HCT-116, HT-29, T24, HCT-8, SGC-7901, DLD-1, TE-1, BT-549, MGC-803 and human hepatocyte cell line L-02 were cultured in Roswell Park Memorial Institute (RPMI) 1640. HuH-7 and SW-480 were cultured in Dulbecco’s modified Eagle’s medium (DMEM). J82, HepG2, Hela, U87 were cultured in Minimum Essential Medium (MEM). Murine bladder cancer cell line, MB49, was cultured in DMEM. The above-mentioned culture medium was provided by GIBCO (Grand Island, USA), contained 10% fetal bovine serum (PAN, Germany), 10 mg/mL of streptomycin, and 10 kU/mL penicillin (Beyotime, China).
Cells were seeded in 96-well plates and incubated with indicated concentrations of CHNQD-01281 for indicated periods. Next, medium was discarded and MTT (5 mg/mL) was added to each well. The cells were incubated at 37 °C for another 4 h. After that, supernatant was discarded, and DMSO was added and incubated at 37 °C for 15 min. Finally, absorbance was measured at 570 nm (Molecular Devices, USA).
Thus, the bladder cancer cell lines J82 and T24 were further investigated and treated by CHNQD-01281 under gradient concentrations (0.031−1.00 µmol/L) and times (24, 72 and 120 h) to measure proliferation activities (Fig. 2B). However, the inhibition of T24 or J82 cell lines by CHNQD-01281 was less than 50% even at the highest concentration of 1 µmol/L for 24 h. […] Therefore, CHNQD-01281 has a higher selectivity index compared to BFA.

C[C@H]1CCC/C=C/[C@@H]2C[C@H](O)C[C@H]2[C@H](OC(=O)/C=C/c2cccnc2)/C=C/C(=O)O1 [CHNQD-01281, Brefeldin A 4-O-3-(pyridin-3-yl) acrylate]
maximum down-regulation of EGFR expression (EGFR): 87.61% | mice with tumor disappearance (MB49 tumor; 10 mg/kg intratumoral, no recurrence within 30 days after cessation): 20% | life prolongation rate (ILS) (MB49 tumor; 10 mg/kg, intratumoral injection, QD): 68.16% | infiltration of CD3+, CD4+ and CD8+ T cells (immunofluorescence) (MB49 tumor; 10 mg/kg, intratumoral injection, QD, tumor tissue): significantly increased | solubility ([1]; Saline or PBS used alone): < 1000 µg/mL | solubility ([1]; aqueous with cosolvent or surfactant or cyclodextrin, No. 2: Saline/DMSO 95/5, pH 7.4, 25 °C): < 1000 µg/mL | solubility ([1]; aqueous with cosolvent or surfactant or cyclodextrin, No. 3: PBS/DMSO 95/5, pH 7.4, 25 °C): < 1000 µg/mL | solubility ([1]; aqueous with cosolvent or surfactant or cyclodextrin, No. 4: Saline/PEG400 95/5, pH 7.4, 25 °C): < 1000 µg/mL | solubility ([1]; aqueous with cosolvent or surfactant or cyclodextrin, No. 5: Saline/PEG400 80/20, pH 7.4, 25 °C): < 1000 µg/mL | solubility ([1]; aqueous with cosolvent or surfactant or cyclodextrin, No. 6: Saline/DMSO/solutol HS-15 85/5/10, pH 7.4, 25 °C): 12000 to 15000 µg/mL (≈ 29200 to 36500 µM) | solubility ([1]; aqueous with cosolvent or surfactant or cyclodextrin, No. 7: Saline/solutol HS-15 95/5, pH 7.4, 25 °C): < 1000 µg/mL | solubility ([1]; aqueous with cosolvent or surfactant or cyclodextrin, No. 8: Saline/solutol HS-15 90/10, pH 7.4, 25 °C): < 1000 µg/mL | solubility ([1]; saline or isotonic, No. 1: Saline (0.9% NaCl) 100, pH 7.4, 25 °C): < 1000 µg/mL | improvement of solubility versus BFA ([1]; saline with 5% DMSO and 10% solutol HS-15): approximately tenfold | healed rate (J82 cell line): 29% | healed rate (T24 cell line): 21% | IC90 [2]: 2520 nM | IC50 ([2]; 72 h): 1160 nM
